In PubChem BioAssay (NCI):
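The compound was tested at five concentrations on cells cultured in 96-well plates, with a 48-hour exposure period. The concentration for 50% growth inhibition is given as GI50. TGI marks complete inhibition of growth.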

How the values were obtained:
Assay in all cases: growth of human tumour cells (NCI), 48 h
DU-145 prostate = test system: DU-145 prostate
HOP-92 NSCLC = test system: HOP-92 NSCLC
BT-549 breast = test system: BT-549 breast
COLO 205 colon = test system: COLO 205 colon
HS 578T breast = test system: HS 578T breast
786-0 renal = test system: 786-0 renal
RPMI-8226 leukemia = test system: RPMI-8226 leukemia
SW-620 colon = test system: SW-620 colon

Row | Compound | GI50 (DU-145 prostate) [µM] | TGI (DU-145 prostate) [µM] | GI50 (HOP-92 NSCLC) [µM] | TGI (HOP-92 NSCLC) [µM] | GI50 (BT-549 breast) [µM] | TGI (BT-549 breast) [µM] | GI50 (COLO 205 colon) [µM] | TGI (COLO 205 colon) [µM] | GI50 (HS 578T breast) [µM] | TGI (HS 578T breast) [µM] | GI50 (786-0 renal) [µM] | TGI (786-0 renal) [µM] | GI50 (RPMI-8226 leukemia) [µM] | TGI (RPMI-8226 leukemia) [µM] | TGI (SW-620 colon) [µM] | GI50 (SW-620 colon) [µM]
1 | [N-]=[N+]=NCCCn1c2c(c3ccc([N+](=O)[O-])cc3c1=O)C(=O)c1cc(Br)ccc1-2 | 14.9 | > 100 | 37.7 | > 100 | > 100 | > 100 | > 100 | > 100 | > 100 | > 100 | 42.4 | > 100 | > 100 | > 100 |  | 
2 | CC(C)OC(=S)Nc1ccc(Cl)c(/C=N/OC(C)(C)C)c1 |  | 17.6 |  | 25.5 |  | 34.1 |  | 32.3 |  | 38.6 |  | 34.3 |  | 51.3 | 32 | 
3 | COc1ccc(-c2ccc(/C=N/n3c(COc4ccccc4Cl)nn(CN4CCOCC4)c3=S)o2)c([N+](=O)[O-])c1 | 34.1 | > 100 | 21.6 | 52.6 | 14.3 | 40.7 | 36.6 | > 100 | 33.9 | 90.4 | 34.4 | > 100 | 15.2 | 42.1 | 87.1 | 27.4
4 | CCCc1cc(=O)n2c(C(=O)Nc3ccc(F)cc3)c(C(=O)Nc3ccc(F)cc3)sc2n1 | 124 | > 160 | 5.27 | 18.6 | > 160 | > 160 | 160 | > 160 | 2.58 | 11.1 | 2.64 | 13.3 | 23.9 | 93.6 | > 160 | 56.5
5 | Cc1ccc(-c2nc(/C=N/Nc3cc(C)nc4ccc(Cl)cc34)c(C)o2)cc1 | 2.49 | 6.67 | 1.43 | 2.98 | 1.72 | 3.27 | 1.76 | 3.57 |  |  | 1.42 | 2.76 | 1.69 | 4.2 | 2.07 | 0.485
6 | COc1cc(/C=C/c2ccc(O)c(OC)c2)cc(OC)c1 |  | 61.5 |  | 49.7 |  |  |  | > 100 |  | 59.1 |  | > 100 |  | > 100 | > 100 | 
7 | CCOC(=O)C(Cc1ccc(N(CCCl)CCCl)cc1)NC(=O)C(Cc1ccccc1)NC=O (stereo not drawn) |  | 0.38 |  | 0.419 |  | 0.756 |  | 0.322 |  |  |  | 0.303 |  | 0.355 | 0.414 | 
8 | c1ccc(OCCC[P+](c2ccccc2)(c2ccccc2)c2ccccc2)cc1 | 3.19 | 19.6 |  |  | 1.42 | 17.1 | 0.97 | 3.47 | 2.69 | 28.4 | 4.14 | 20 | 0.303 | 3.66 | > 100 | 2.22
9 | C#CC1=CC(=O)C(OC)=CC1=O |  | 37.4 |  | 34 |  |  |  | > 100 |  | > 100 |  | 20.1 |  | 49.6 | 40 | 
10 | CC(=O)OC12C=C(C)C(C(C)C1)C1C(=O)N(CCN3CCCCC3)C(=O)C12 (stereo not drawn) | > 50 | > 50 | > 50 | > 50 | > 50 | > 50 | > 50 | > 50 | 48 | > 50 | > 50 | > 50 |  |  | > 50 | > 50
11 | CCCOC(=O)c1c(C)n(C)c2scc[n+]12 | 86.1 | > 100 | 15.1 | > 100 | 35.9 | > 100 | 17.8 | 46.8 | 19.8 | 74 | 80.1 | > 100 |  |  | > 100 | 67.4
12 | CCCCC#Cc1c(I)n(C)c(=O)[nH]c1=O | 4.42 | 15.4 |  |  | 1.94 | 4.55 | 1.93 | 3.58 | 2.61 | 7.16 | 16.5 | 30.1 | 2.37 | 8.41 | 3.05 | 1.66
13 | Cn1cc(C2=C(c3c[nH]c4ccccc34)C(=O)NC2=O)c2ccccc21 | 2.37 | > 25 |  |  | 0.314 | > 7.28 | 1.25 | > 25 | 0.151 | > 25 | 0.446 | > 25 | 1.57 | > 20.8 | > 25 | > 4.92
14 | COc1ccc(C2=Nc3ccccc3SC(C)C2)cc1OC (stereo not drawn) |  |  |  | > 100 |  |  |  | 40.6 |  |  |  | 30.2 |  | 38.4 | 18.6 | 
15 | O=C(NNc1ccc(Cl)cc1)C1CCC(CNS(=O)(=O)c2ccccc2Cl)CC1 (stereo not drawn) | 31.6 | > 100 | 17.3 | > 100 | 21.6 | 52.6 |  |  | 65.2 | > 100 | 13.7 | 34 | 4.91 | 21.9 | > 100 | 40.6
